According to patent US7666876B2, “Buprenorphine formulations for intranasal delivery” (Vernalis (R&D) Limited, priority 2002, dated 2010):

Assay: Effect of dextrose and mannitol concentration on buprenorphine solubility in pectin solution (hplc)
Conditions: aqueous solution containing 20 mg/ml pectin, across the measured pH range
Method: Solutions containing pectin (Slendid 100) (20 mg/ml) were prepared at pH 3, 4, 5 and 6 (pH adjustments were made with 0.1M HCl or 0.1M meglumine). […] An excess of buprenorphine hydrochloride was then added and the mixture stirred overnight at 18° C. Saturated buprenorphine hydrochloride solutions were produced by passing each mixture through a 0.2 μm polycarbonate membrane filter. The concentration of buprenorphine hydrochloride in the filtrate was determined by hplc.

Structure (SMILES): CO[C@]12CCC3(C[C@@H]1[C@@](C)(O)C(C)(C)C)[C@H]1Cc4ccc(O)c5c4[C@@]3(CCN1CC1CC1)C2O5 (stereo partly shown) [Buprenorphine]
- Effect of dextrose or mannitol concentration on buprenorphine solubility: not affected significantly
